Measured values: BindingDB's records for doi:10.1016/j.ejmech.2017.08.029 (Emory University, 2017)

Assay: Inhibition of human GLUT1 in human KMS11 cells over-expressing human GLUT1 assessed as as inhibition of receptor-mediated cell proliferation after 72 hrs by CellTiter-Glo assay

| SMILES | IC50 [µM] |
| --- | --- |
| COc1ccc(C(=O)N(Cc2ccncc2)Cc2cccc(OCc3ccc(F)cc3)c2)cc1 | 28.6 |
| COc1ccc(C(=O)N(Cc2ccncc2)Cc2cccc(OCc3cccc(OC)c3)c2)cc1 | 28.5 |
| COc1ccc(C(=O)N(Cc2ccncc2)Cc2cccc(OCC(=O)c3cccc(Br)c3)c2)cc1 | 21.4 |
| COc1ccc(CC(=O)N(Cc2ccncc2)Cc2cccc(OCCc3ccc(F)cc3)c2)cc1 | 21.8 |
| COc1ccc(C(=O)N(Cc2ccncc2)Cc2cccc(OCC3CCOCC3)c2)cc1 | 25.8 |
| COc1ccc(C(=O)N(Cc2ccncc2)Cc2cccc(OCCc3ccccc3)c2)cc1 | 21 |
| COc1ccc(C(=O)N(Cc2ccncc2)Cc2cccc(OCC(=O)c3ccc(Cl)cc3)c2)cc1 | 16.9 |
| COc1ccc(C(=O)N(Cc2ccncc2)Cc2cccc(OCc3ccc(C(F)(F)F)cc3)c2)cc1 | 16.8 |

Now those with a lower IC50, led by results:

| IC50 [µM] | SMILES |
| --- | --- |
| 16 | COc1ccc(C(=O)N(Cc2ccncc2)Cc2cccc(OCC3CCCCC3)c2)cc1 |
| 15.6 | O=C(c1ccc(Cl)cc1)N(Cc1ccncc1)Cc1cccc(OCCc2ccc(F)cc2)c1 |
| 15.1 | COc1ccc(C(=O)N(Cc2ccncc2)Cc2cccc(OCCc3cccc(C(F)(F)F)c3)c2)cc1 |
| 12.7 | COc1ccc(C(=O)N(Cc2ccncc2)Cc2cccc(OCCc3ccc(C)cc3)c2)cc1 |
| 11.7 | COc1ccc(C(=O)N(Cc2ccncc2)Cc2cccc(OCc3ccc([N+](=O)[O-])cc3)c2)cc1 |
| 6.5 | COc1ccc(C(=O)N(Cc2ccncc2)Cc2cccc(OCCc3ccc(Br)cc3)c2)cc1 |
